Results as given in patent publication US9593108B2, “Compounds and methods for antiviral treatment” (PTC Therapeutics, Inc., priority 2009, dated 2017).

How the values were obtained:
[1] = system: HCV replicon RNA (GenBank Accession No. AJ242654); assay: HCV Replicon Assay (replicon RNA reduction and/or Fluc reporter signal); type: cell-based, Hepatitis C virus; conditions: Hepatitis C virus, 72 h, replicon-containing cells cultured with test compound for up to 3 days
Method in brief: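 Bicistronic replicon-containing cells cultured with compound for up to 3 days, with interferon as positive control. Inhibition quantified by replicon RNA reduction and/or Fluc reporter signal; IC50 values generally derived from replicon RNA reduction.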

Structure (SMILES)	IC50 [1] [nM]	melting point [°C]
CC(C)(C)NS(=O)(=O)c1ccc(-c2c(C(N)=O)c3cc(Cl)cnc3n2C2CCC2)nc1 [Cpd 327, 2-[5-(tert-butylsulfamoyl)pyridin-2-yl]-5-chloro-1-cyclobutyl-1H-pyrrolo[2,3-b]pyridine-3-carboxamide]	< 500	240 to 241
NC(=O)c1c(-c2ccc(S(=O)(=O)NC3(C(F)(F)F)CC3)cc2)n(C2CCC2)c2ncc(Cl)cc12 [Cpd 328, 5-chloro-1-cyclobutyl-2-(4-{[1-(trifluoromethyl)cyclopropyl]sulfamoyl}phenyl)-1H-pyrrolo[2,3-b]pyridine-3-carboxamide]	< 500	271 to 272
CC(C)(NS(=O)(=O)c1ccc(-c2c(C(N)=O)c3cc(Cl)cnc3n2C2CCC2)cc1)C(F)(F)F [Cpd 329, 5-chloro-1-cyclobutyl-2-{4-[(1,1,1-trifluoro-2-methylpropan-2-yl)sulfamoyl]phenyl}-1H-pyrrolo[2,3-b]pyridine-3-carboxamide]	< 500	263 to 265
COc1ccc(-n2c(-c3ccc(S(=O)(=O)N[C@@H](C)C(F)(F)F)cn3)c(C#N)c3cc(C(F)(F)F)cnc32)nc1 [Cpd 332, 6-[3-cyano-1-(5-methoxypyridin-2-yl)-5-(trifluoromethyl)-1H-pyrrolo[2,3-b]pyridin-2-yl]-N-[(2S)-1,1,1-trifluoropropan-2-yl]pyridine-3-sulfonamide]	500 to 2000	203 to 206
COc1ccnc(-n2c(-c3ccc(S(=O)(=O)N[C@@H](C)C(F)(F)F)cn3)c(C#N)c3cc(C(F)(F)F)cnc32)n1 [Cpd 333, 6-[3-cyano-1-(4-methoxypyrimidin-2-yl)-5-(trifluoromethyl)-1H-pyrrolo[2,3-b]pyridin-2-yl]-N-[(2S)-1,1,1-trifluoropropan-2-yl]pyridine-3-sulfonamide]	2000 to 5000	209 to 211
CC(C)(C)NS(=O)(=O)c1ccc(-c2c(C#N)c3cc(C(F)(F)F)cnc3n2-c2ncccn2)cc1 [Cpd 334, N-tert-butyl-4-[3-cyano-1-(pyrimidin-2-yl)-5-(trifluoromethyl)-1H-pyrrolo[2,3-b]pyridin-2-yl]benzenesulfonamide]	2000 to 5000	228 to 230
CC(C)(C)NS(=O)(=O)c1ccc(-c2c(C#N)c3cc(C(F)(F)F)cnc3n2-c2cnccn2)cc1 [Cpd 335, N-tert-butyl-4-[3-cyano-1-(pyrazin-2-yl)-5-(trifluoromethyl)-1H-pyrrolo[2,3-b]pyridin-2-yl]benzenesulfonamide]	< 500	190 to 192
CC(C)(C)NS(=O)(=O)c1ccc(-c2c(C#N)c3cc(C(F)(F)F)cnc3n2-c2ccccn2)cc1 [Cpd 336, N-tert-butyl-4-[3-cyano-1-(pyridin-2-yl)-5-(trifluoromethyl)-1H-pyrrolo[2,3-b]pyridin-2-yl]benzenesulfonamide]	500 to 2000	227 to 230
CC(C)(C)NS(=O)(=O)c1ccc(-c2c(C#N)c3cc(C(F)(F)F)cnc3n2-c2ccccc2)cc1 [Cpd 337, N-tert-butyl-4-[3-cyano-1-phenyl-5-(trifluoromethyl)-1H-pyrrolo[2,3-b]pyridin-2-yl]benzenesulfonamide]	500 to 2000	206 to 208
Cc1nc(-c2c(C#N)c3cc(C(F)(F)F)cnc3n2C2CCC2)ccc1S(=O)(=O)N[C@@H](C)C(F)(F)F [Cpd 338, 6-[3-cyano-1-cyclobutyl-5-(trifluoromethyl)-1H-pyrrolo[2,3-b]pyridin-2-yl]-2-methyl-N-[(2S)-1,1,1-trifluoropropan-2-yl]pyridine-3-sulfonamide]	< 500	162 to 165
C[C@H](NS(=O)(=O)c1ccc(-c2c(C#N)c3cc(Br)cnc3n2-c2ncccn2)nc1)C(F)(F)F [Cpd 339, 6-[5-bromo-3-cyano-1-(pyrimidin-2-yl)-1H-pyrrolo[2,3-b]pyridin-2-yl]-N-[(2S)-1,1,1-trifluoropropan-2-yl]pyridine-3-sulfonamide]	< 500	223 to 225
C[C@H](NS(=O)(=O)c1ccc(-c2c(C#N)c3cc(Br)cnc3n2-c2cnccn2)nc1)C(F)(F)F [Cpd 340, 6-[5-bromo-3-cyano-1-(pyrazin-2-yl)-1H-pyrrolo[2,3-b]pyridin-2-yl]-N-[(2S)-1,1,1-trifluoropropan-2-yl]pyridine-3-sulfonamide]	< 500	247 to 248
Cc1cnc2c(c1)c(C(N)=O)c(-c1ccc(S(=O)(=O)NC(C)(C)C(F)(F)F)cc1)n2C1CCC1 [Cpd 341, 1-cyclobutyl-5-methyl-2-{4-[(1,1,1-trifluoro-2-methylpropan-2-yl)sulfamoyl]phenyl}-1H-pyrrolo[2,3-b]pyridine-3-carboxamide]	< 500	235 to 237
C[C@H](NS(=O)(=O)c1ccc(-c2c(C#N)c3cc(C4CC4)cnc3n2-c2cnccn2)nc1)C(F)(F)F [Cpd 344, 6-[3-cyano-5-cyclopropyl-1-(pyrazin-2-yl)-1H-pyrrolo[2,3-b]pyridin-2-yl]-N-[(2S)-1,1,1-trifluoropropan-2-yl]pyridine-3-sulfonamide]	< 500	219 to 221
Cc1cnc2c(c1)c(C#N)c(-c1ccc(S(=O)(=O)N[C@@H](C)C(F)(F)F)cn1)n2-c1ncccn1 [Cpd 345, 6-[3-cyano-5-methyl-1-(pyrimidin-2-yl)-1H-pyrrolo[2,3-b]pyridin-2-yl]-N-[(2S)-1,1,1-trifluoropropan-2-yl]pyridine-3-sulfonamide]	< 500	221 to 223
Cc1cnc2c(c1)c(C#N)c(-c1ccc(S(=O)(=O)N[C@@H](C)C(F)(F)F)cn1)n2-c1ccccn1 [Cpd 346, 6-[3-cyano-5-methyl-1-(pyridin-2-yl)-1H-pyrrolo[2,3-b]pyridin-2-yl]-N-[(2S)-1,1,1-trifluoropropan-2-yl]pyridine-3-sulfonamide]	< 500	165 to 167
Cc1cnc2c(c1)c(C#N)c(-c1ccc(S(=O)(=O)N[C@@H](C)C(F)(F)F)cn1)n2-c1cccnc1 [Cpd 347, 6-[3-cyano-5-methyl-1-(pyridin-3-yl)-1H-pyrrolo[2,3-b]pyridin-2-yl]-N-[(2S)-1,1,1-trifluoropropan-2-yl]pyridine-3-sulfonamide]	< 500	205 to 207
Cc1cnc2c(c1)c(C#N)c(-c1ccc(S(=O)(=O)N[C@@H](C)C(F)(F)F)cn1)n2-c1ccccc1 [Cpd 348, 6-(3-cyano-5-methyl-1-phenyl-1H-pyrrolo[2,3-b]pyridin-2-yl)-N-[(2S)-1,1,1-trifluoropropan-2-yl]pyridine-3-sulfonamide]	< 500	220 to 222
Cc1cnc2c(c1)c(C#N)c(-c1ccc(S(=O)(=O)N[C@@H](C)C(F)(F)F)cn1)n2-c1cnccn1 [Cpd 349, 6-[3-cyano-5-methyl-1-(pyrazin-2-yl)-1H-pyrrolo[2,3-b]pyridin-2-yl]-N-[(2S)-1,1,1-trifluoropropan-2-yl]pyridine-3-sulfonamide]	< 500	220 to 222
CN(Cc1ccccc1)c1cnc2c(c1)c(C#N)c(-c1ccc(S(=O)(=O)NC(C)(C)C)cc1)n2C1CCC1 [Cpd 351, 4-{5-[benzyl(methyl)amino]-3-cyano-1-cyclobutyl-1H-pyrrolo[2,3-b]pyridin-2-yl}-N-tert-butylbenzenesulfonamide]	2000 to 5000	168 to 171
Cc1ccnc(-n2c(-c3ccc(S(=O)(=O)N[C@@H](C)C(F)(F)F)cn3)c(C#N)c3cc(C(F)(F)F)cnc32)n1 [Cpd 355, 6-[3-cyano-1-(4-methylpyrimidin-2-yl)-5-(trifluoromethyl)-1H-pyrrolo[2,3-b]pyridin-2-yl]-N-[(2S)-1,1,1-trifluoropropan-2-yl]pyridine-3-sulfonamide]	< 500	176 to 180
C[C@H](NS(=O)(=O)c1ccc(-c2c(C(N)=O)c3cc(F)cnc3n2C2CCC2)nc1)C(F)(F)F [Cpd 356, 1-cyclobutyl-5-fluoro-2-(5-{[(2S)-1,1,1-trifluoropropan-2-yl]sulfamoyl}pyridin-2-yl)-1H-pyrrolo[2,3-b]pyridine-3-carboxamide]	< 500	223 to 225
COc1cnc2c(c1)c(C(N)=O)c(-c1ccc(S(=O)(=O)N[C@@H](C)C(F)(F)F)cn1)n2C1CCCC1 [Cpd 357, 1-cyclopentyl-5-methoxy-2-(5-{[(2S)-1,1,1-trifluoropropan-2-yl]sulfamoyl}pyridin-2-yl)-1H-pyrrolo[2,3-b]pyridine-3-carboxamide]	< 500	263 to 264
CSc1cnc2c(c1)c(C(N)=O)c(-c1ccc(NS(=O)(=O)C(C)C)cc1)n2C1CCCC1 [Cpd 358, 1-cyclopentyl-5-(methylsulfanyl)-2-{4-[(propan-2-ylsulfonyl)amino]phenyl}-1H-pyrrolo[2,3-b]pyridine-3-carboxamide]	< 500	250 to 252
COc1cnc2c(c1)c(C(N)=O)c(-c1ccc(NS(=O)(=O)C(C)(C)C)cc1)n2C1CCCC1 [Cpd 359, 2-{4-[(tert-butylsulfonyl)amino]phenyl}-1-cyclopentyl-5-methoxy-1H-pyrrolo[2,3-b]pyridine-3-carboxamide]	< 500	269 to 272
C[C@H](NS(=O)(=O)c1ccc(-c2c(C#N)c3cc(C(F)(F)F)cnc3n2C2CC2)nc1)C(F)(F)F [Cpd 360, 6-[3-cyano-1-cyclopropyl-5-(trifluoromethyl)-1H-pyrrolo[2,3-b]pyridin-2-yl]-N-[(2S)-1,1,1-trifluoropropan-2-yl]pyridine-3-sulfonamide]	< 500	194 to 196
C[C@H](NS(=O)(=O)c1ccc(-c2c(C#N)c3cc([S+](C)[O-])cnc3n2C2CCC2)nc1)C(F)(F)F (stereo partly drawn) [Cpd 363, [3-cyano-1-cyclobutyl-2-(5-{[(2S)-1,1,1-trifluoropropan-2-yl]sulfamoyl}pyridin-2-yl)-1H-pyrrolo[2,3-b]pyridin-5-yl](methyl)sulfoniumolate]	< 500	257 to 258
